In brackets after ≈: the same amount, converted by molar mass. Read-outs that look alike come from different tables or passages of the source. Non-standard residues stand in square brackets, D forms with d. Residues, ends and D or L forms follow the SMILES beside them. d1Nal = N[C@H](Cc1cccc2ccccc12)C(=O)O
Key:
[1] = test system: E. coli 0111 :B4 lipopolysaccharide challenge in CD-1 mice; assay: Murine model of endotoxemia (survival); format: in vivo; settings: 0.65 mg/kg intravenously; 25 mg/kg LPS; seven days
Experimental: This example addresses studies relating to additional activities of XMP.629, including its known endotoxin-related activities. […] For these studies, groups of 15 male CD-1 mice were challenged with 25 mg/kg E. coli 0111 :B4 lipopolysaccharide via tail vein injection. Immediately following endotoxin challenge, mice were treated intravenously with XMP.629 at 0.07, 0.2, 0.65 mg/kg or saline. Animals were observed twice daily and mortality was recorded for seven days.

[2] = test system: Propionibacterium isolates; settings: 15 isolates
Experimental: Inoculum from a representative panel of bacterial strains associated with acne, such as P. acnes, P. avidum, P. granulosum, and Staphylococcus epidermis was prepared by suspending approximately 5-10 isolated bacterial colonies in pre-reduced MicroScan® Inoculum Water (Dade Behring, Deerfield, Ill.), and growing the bacterial suspension to log phase (approximately 48 hrs). An inoculum of between 1-5×10^6/mL was achieved by adding 100 μL of the suspension to 25 mL Brain Heart Infusion Broth (BHI) (Anaerobe Systems, Morgan Hill, Calif.).
(§1) Control tubes containing only water or formulation buffer were prepared for each isolate. Initial growth controls were determined by removing 10 μL from the water control tube and diluting it by 100 fold. From this dilution, 10 μL was used for inoculation and for spreading over the surface onto Laked Blood Agar (LBA) (Anaerobe Systems, Morgan Hill, Calif.) plates. The tubes and plates were incubated in an anaerobic atmosphere at 37° C. for 48 h. […] MBC50 and 90 values represent where 50 and 90%, respectively, of the tested strain's MBC values are equal to or less than the indicated concentration.

Clostridium difficile = Clostridium difficile 9689
in vivo [3] = settings: both, minipig, plasma, iv; for half-life: 0.05 or 2 mg/kg short IV infusion
[4] = test system: albino hairless guinea pigs Crl:IAF(HA)-hrBR (Outbred); assay: Photosafety study: primary irritancy, phototoxicity, contact hypersensitivity, photoallergy; format: in vivo, guinea pig; settings: XMP.629 up to 10 mg/mL (1.0%)
Experimental: XMP.629 was evaluated for photoallergic potential administered topically to hairless guinea pigs. Primary irritancy, phototoxicity (photoirritancy) and contact hypersensitivity were also evaluated in these studies.
Male CrI:IaF(HA)-hrBR (Outbred) albino hairless guinea pigs were assigned to 7 groups, five guinea pigs per group as outlined below.
XMP.629 was formulated as a gel. The phototoxicity comparator article was 8-methoxypsoralen (8-MOP) in methanol at concentrations of 0.1, 0.3 and 1.0 mg/mL. The contact hypersensitivity and photoallergy comparator article was 3,3′,4′,5′-tetrachlorosalicy/anilide (TCSA) in acetone:corn oil (4:1, v/v) at challenge concentrations of 0 (Vehicle), 10, and 30 mg/mL. The reagent and reagent vehicle were Freund's complete adjuvant (FCA) and sterile water for injection, USP, respectively.
The formulation administration and ultraviolet radiation (UVR) exposure regimens for each group in the study were as follows.
For all phases of the study, test articles, test article vehicles, comparator articles and comparator article vehicles were administered (0.3 ml) using a Hilltop chamber affixed to the guinea pig with dental dam overlaid with a Velcro® wrap for approximately 2.0 hours per administration.
Primary irritancy potential of the test articles and test article vehicles was evaluated in Group 1 guinea pigs. Three chambers (one per formulation dosage) were attached to the dorsal skin along the midline. After the administration period the chamber patches were removed and the application sites were gently wiped.
Cutaneous phototoxicity potential of the test articles and test article vehicles was evaluated in Group 2 guinea pigs. Group 3 guinea pigs were used as a comparator group with elicitation of phototoxicity with 8-MOP. Three chambers (one per formulation dosage) were attached to the dorsal skin along the midline and occluded. After the administration period the chamber patches were removed and the application sites were gently wiped. After wiping, Group 2 and 3 guinea pigs were exposed to solar-simulated UVR for approximately 2.25 hours.
For induction of contact hypersensitivity and photoallergy, a nuchal area of skin approximately 2.5 cm^2 was defined by intradermal injections with a formulation of sterile water and FCA in guinea pigs in Groups 4 through 7 under isoflurane/oxygen anesthesia. This skin area was then tape stripped five times. Formulations were topically administered via chambers as described in the study design table using one chamber attached to the nuchal area. After removal of the chambers the application sites were gently wiped and the nuchal site of Group 6 and 7 guinea pigs was exposed to UVR as above. Appropriate procedures for guinea pigs (with the exception of injection with FCA) were repeated once daily on Days 3, 5, 8, 10 and 12 of the induction phase.
On Day 22 (contact hypersensitivity and photoallergy challenge), formulations were topically applied to appropriate sites on guinea pigs in Groups 4 through 7 as described above. Three chambers (one per formulation dosage) were attached to the dorsal skin along the midline and occluded. The chambers were then removed and the application sites were gently wiped. Guinea pigs in Groups 6 and 7 were then exposed to UVR as above.
Observations for general appearance and clinical signs were made weekly throughout the study. […] Body weights were recorded at initiation of dosing for each phase, weekly thereafter and at sacrifice. […]

Corynebacterium = assay: microbe, parasite or virus in culture; format: cell-based
Experimental: as §1

E. coli = settings: for MBC: agent alone
in vivo [5] = settings: both, Sprague-Dawley, rat, plasma, 0.2 mg/kg
Experimental: Using non-radiolabeled XMP.629, a pharmacokinetic study was conducted in an analogous manner as described above for ^3H-XMP.629. However, in this study, a 0.05 or a 0.2 mg/kg intravenous dose of XMP.629 was administered to 2 males and 2 females rats. Blood samples were collected for 168 hours following dosing and plasma XMP.629 concentrations were measured using liquid chromatography/mass spectrometry (LC/MS).

[6] = Formulation Buffer Solvent, Study 1
[7] = Formulation Buffer Solvent, Study 2

## CC(C)C[C@@H](NC(=O)[C@H](N)CCCCN)C(=O)N[C@H](Cc1ccccc1)C(=O)N[C@H](CCCNC(=N)N)C(=O)N[C@H](Cc1cccc2ccccc12)C(=O)N[C@H](CCC(N)=O)C(=O)N[C@H](C)C(=O)N[C@H](CCCCN)C(=O)N[C@H](Cc1cccc2ccccc12)C(N)=O [XMP.629, NH2-lys-leu-phe-arg-(3-(1-naphthyl)-ala)-gln-ala-lys-(3-(1-naphthyl)-ala)-CONH2] (H-[dK][dL][dF][dR][d1Nal][dQ][dA][dK][d1Nal]-NH2)
[1]
  survival in endotoxin-challenged mice: complete protection
[2]; [6]
  MBC GeoMean Values: 1.2 µg/mL (≈ 0.935 µM)
  MIC GeoMean Values: 0.7 µg/mL (≈ 0.545 µM)
[2]; [7]
  MBC GeoMean Values: 1.10 µg/mL (≈ 0.857 µM)
  MIC GeoMean Values: 0.7 µg/mL (≈ 0.545 µM)
[2]; Water Solvent, Study 1
  MBC GeoMean Values: 2.41 µg/mL (≈ 1.88 µM)
  MIC GeoMean Values: 1.7 µg/mL (≈ 1.32 µM)
[2]; Water Solvent, Study 2
  MBC GeoMean Values: 1.9 µg/mL (≈ 1.48 µM)
  MIC GeoMean Values: 1.7 µg/mL (≈ 1.32 µM)
Clostridium difficile
  Minimum Inhibitory Concentrations: 2.00 µg/mL
In vivo [3]; Sinclair mini-pig
  Vd: 0.067 to 0.102 L/kg
  clearance: 1.75 to 2.6 mL/min/kg
In vivo [3]; Sinclair mini-pig, 0.05 mg/kg
  Vd: 1.79 L/kg
In vivo [3]; Sinclair mini-pig, 0.2 mg/kg
  Vd: 0.956 L/kg
In vivo [3]; Sinclair mini-pig, beta half-life
  half-life: 60 to 78 min
In vivo [3]; Sinclair mini-pig, initial half-life
  half-life: 1.8 to 54 min
In vivo [3]; Sinclair mini-pig, terminal half-life
  half-life: ~900 min
In vivo [3]; Sinclair, 0.05 mg/kg
  MRT: 11.3 h
  clearance: 2.59 mL/min/kg
In vivo [3]; Sinclair, 0.2 mg/kg
  MRT: 7.41 h
  clearance: 1.74 mL/min/kg
[4]
  contact hypersensitivity: did not cause skin changes
  photoallergy: did not cause skin changes
[4]; single topical administration and UVR
  phototoxicity: did not cause skin changes
[4]; single topical administration, 0.3 mL/skin site
  primary irritation: did not cause skin changes
Corynebacterium
  MIC90, XMP.629 data reported as MBC values: 0.25 µg/mL (≈ 0.195 µM)
Corynebacterium; in FB (formulation buffer)
  MIC90, XMP.629 data reported as MBC values: <0.25 µg/mL
E. coli; E. coli 706U2-1081
  MBC: 16 µg/mL (≈ 12.5 µM)
E. coli; E. coli 4104 LF, XMP.629 alone
  XMP.629 MBC: 16 µg/mL
E. coli; E. coli 4104 LF
  MBC: 8 µg/mL (≈ 6.23 µM)
In vivo [5]; intravenous
  clearance: ~5.33 mL/min/kg
In vivo [5]; intravenous, alpha half-life, two compartment model
  half-life: ~20 min
In vivo [5]; intravenous, terminal half-life, two compartment model
  half-life: ~960 min
In vivo [5]; iv
  AUC: 744 ng·h/mL
  clearance: 5.32 mL/min/kg
In vivo [5]; iv, Vc (volume of distribution of the central compartment), non-labeled XMP.629, 0.2 mg/kg intravenous, LC/MS, two compartment model, mean
  Vd: 0.202 L/kg
In vivo [5]; iv, Vss (volume of distribution at steady state), non-labeled XMP.629, 0.2 mg/kg intravenous, mean
  Vd: 2.25 L/kg
In vivo [5]; iv, t1/2 (average half-life), non-labeled XMP.629, 0.2 mg/kg intravenous, mean
  half-life: 26.4 min
In vivo [5]; iv, t1/2 α (α half-life), non-labeled XMP.629, 0.2 mg/kg intravenous, mean
  half-life: 21.2 min
In vivo [5]; iv, t1/2 β (β half-life), non-labeled XMP.629, 0.2 mg/kg intravenous, mean
  half-life: 972 min

From patent publication US20050148495A1, “Methods and materials including for treating acne” (priority 2003, published 2005)
